Assay results from ChEMBL document CHEMBL3046478, “Evaluating anti-Toxoplasma gondii activity of new serie of phenylsemicarbazone and phenylthiosemicarbazones in vitro” (Med Chem Res, 2013).
Active and inactive are the calls of the source. The rule behind the calls is not given here.

What was measured:
Vero [1] = assay: Cytotoxicity against Chlorocebus aethiops (African green monkey) Vero cells infected with Toxoplasma gondii RH tachyzoites assessed as cell death and morphological alterations at 1 mM after 24 hr by microscopic analysis; type: cell-based; conditions: chlorocebus sabaeus, 1000 µM
Vero [2] = assay: Cytotoxicity against Chlorocebus aethiops (African green monkey) Vero cells infected with Toxoplasma gondii RH tachyzoites assessed as cell death and morphological alterations at 0.5 mM after 24 hr by microscopic analysis; type: cell-based; conditions: chlorocebus sabaeus, 500 µM
Vero [3] = assay: Cytotoxicity against Chlorocebus aethiops (African green monkey) Vero cells infected with Toxoplasma gondii RH tachyzoites assessed as cell death and morphological alterations at 0.01 mM after 24 hr by microscopic analysis; type: cell-based; conditions: chlorocebus sabaeus, 10 µM
[4] = Cytotoxicity against Chlorocebus aethiops (African green monkey) Vero cells infected with Toxoplasma gondii RH tachyzoites assessed as cell death and morphological alterations after 24 hr by microscopic analysis; type: cell-based; conditions: chlorocebus sabaeus, read-out: LD50
Toxoplasma gondii [5] = assay: Antiparasitic activity against Toxoplasma gondii RH tachyzoites infected African green monkey Vero cells assessed as mortality treated 24 hr after parasite infection measured after 24 hr by Giemsa staining based microscopic analysis; type: functional; conditions: read-out: LD50 (the source's name)
Toxoplasma gondii [6] = assay: Antiparasitic activity against Toxoplasma gondii RH tachyzoites infected African green monkey Vero cells assessed as reduction in number of intracellular parasites at 0.1 mM treated 24 hr after parasite infection measured after 24 hr by Giemsa staining based microscopic analysis; type: functional, organism-based
Toxoplasma gondii [7] = assay: Antiparasitic activity against Toxoplasma gondii RH tachyzoites infected African green monkey Vero cells assessed as reduction in number of intracellular parasites at 0.01 mM treated 24 hr after parasite infection measured after 24 hr by Giemsa staining based microscopic analysis; type: functional
Toxoplasma gondii [8] = assay: Antiparasitic activity against Toxoplasma gondii RH tachyzoites infected African green monkey Vero cells assessed as reduction in number of infected Vero cells at 0.01 mM treated 24 hr after parasite infection measured after 24 hr by Giemsa staining based microscopic analysis; type: functional
Toxoplasma gondii [9] = assay: Antiparasitic activity against Toxoplasma gondii RH tachyzoites infected African green monkey Vero cells assessed as reduction in number of intracellular parasites at 1 mM treated 24 hr after parasite infection measured after 24 hr by Giemsa staining based microscopic analysis; type: functional, organism-based

In the case of `COc1cc(O)cc(OC)c1/C=N/NC(=S)Nc1ccccc1`, the Activity (Vero [1]) is reported as 100%, the Activity (Vero [2]) is reported as 50% and the Activity (Vero [3]) is reported as “Non-toxic”. It also gave a CC50 at 24 h [4] of 700 µM and an LC50 (Toxoplasma gondii [5]) of 200 µM.

For `O=C(N/N=C/c1cc(O)c(O)cc1O)Nc1ccccc1`, the Activity (Vero [1]) was “Toxic”, the inhibition (Toxoplasma gondii [6]) was “Active” and the inhibition at 10 µM (Toxoplasma gondii [7]) was 82%. The Activity (Vero [2]) was “Toxic”, the Activity (Vero [3]) was “Non-toxic” and the CC50 at 24 h [4] was 300 µM. The LC50 (Toxoplasma gondii [5]) was 6 µM.

`Nc1ccc(S(=O)(=O)Nc2ncccn2)cc1` [SULFADIAZINE] showed a CC50 at 24 h [4] greater than 10000 µM and an LC50 (Toxoplasma gondii [5]) of 6000 µM.

For `COc1cc(O)cc(OC)c1/C=N/NC(=O)Nc1ccccc1`, the Activity (Vero [3]) was “Non-toxic”, the CC50 at 24 h [4] was greater than 1000 µM and the LC50 (Toxoplasma gondii [5]) was 500 µM.

For `Oc1ccc(/C=N/NC(=S)Nc2ccccc2)c(O)c1O`, the Activity (Vero [1]) was “Toxic”, the Activity (Vero [2]) was “Toxic” and the Activity (Vero [3]) was “Non-toxic”. The CC50 at 24 h [4] was 400 µM and the LC50 (Toxoplasma gondii [5]) was 30 µM.

With `O=C(/N=C/c1ccc(O)c(O)c1O)NNc1ccccc1` the Activity (Vero [1]) was “Toxic”, the inhibition at 10 µM (Toxoplasma gondii [8]) was 50% and the Activity (Vero [2]) was “Toxic”. The Activity (Vero [3]) was “Non-toxic”, the CC50 at 24 h [4] was 70 µM and the LC50 (Toxoplasma gondii [5]) was 20 µM.

In the case of `COc1cc(O)cc(OC)c1/C=N/C(=O)NNc1ccccc1`, the inhibition (Toxoplasma gondii [9]) is reported as “Active”, the Activity (Vero [3]) is reported as “Non-toxic” and the CC50 at 24 h [4] is reported as greater than 1000 µM. It also gave an LC50 (Toxoplasma gondii [5]) of 600 µM.

For `Oc1cc(O)c(/C=N/NC(=S)Nc2ccccc2)cc1O`, the Activity (Vero [1]) was “Toxic”, the Activity (Vero [2]) was “Toxic” and the Activity (Vero [3]) was “Non-toxic”. For the same compound, the CC50 at 24 h [4] was 300 µM and the LC50 (Toxoplasma gondii [5]) was 80 µM.

For `O=C(N/N=C/c1ccc(O)c(O)c1O)Nc1ccccc1`, the Activity (Vero [1]) was “Toxic”, the Activity (Vero [2]) was “Toxic” and the Activity (Vero [3]) was “Non-toxic”. It also gave a CC50 at 24 h [4] of 300 µM and an LC50 (Toxoplasma gondii [5]) of 200 µM.

In the case of `O=C(/N=C/c1cc(O)c(O)cc1O)NNc1ccccc1`, the Activity (Vero [1]) is reported as “Toxic”, the Activity (Vero [2]) is reported as “Toxic” and the Activity (Vero [3]) is reported as “Non-toxic”. It also gave a CC50 at 24 h [4] of 400 µM and an LC50 (Toxoplasma gondii [5]) of 300 µM.
